We go through 11 compounds from patent US6160006A (priority 1997, dated 2000).

Usually inhibition stands for the share of the control response that was lost under treatment.

Like-named read-outs stand apart in the source and are kept apart here.

The subject of data set [1] is P450 1A1. Conditions: cited from earlier work.
The test system of data set [2] is P450 1A2. The settings on record: cited from earlier work.
Data set [3] deals with CYP3A. The settings on record: cited from earlier work.
Data set [4] deals with cytochrome P450. Conditions: dose far in excess of the amount in grapefruit juice; cited from earlier work.
For data set [5], the system named is CYP3A. Kind of data set: CYP3A activity: 6β-hydroxytestosterone formation from testosterone in rat liver microsomes. The protocol: (§1) Measurement of CYP3A Activity. CYP3A activity was assessed by measuring the formation rate of 6β-hydroxytestosterone from testosterone in dexamethasone-induced liver microsomes from male Sprague-Dawley rats (Human Biologics Inc., Phoenix, Az.) using incubation conditions identical to those described previously. Edwards, D. J. et al., Life Sci. 59:1025-1030 (1996). […] Siess, M.-H. et al., Toxicol. Appl. Pharmacol. 130:73-78 (1995). In addition, 6β-hydroxytestosterone formation was also measured in human lymphoblast microsomes containing CYP3A4 expressed from transfected human CYP3A4 cDNA (Gentest Corporation, Woburn, Mass.).
(§2) HPLC Procedures and instrumentation. […] Methylene chloride (4 ml) was added and samples were vortex mixed for 2 minutes. After centrifugation, the organic phase was evaporated, the residue re-constituted in 200 μl of mobile phase (55% methanol in water) and injected (100 μl) onto the column (Partisil 5 ODS-3 25 cm C18 column, Whatman Inc., Clifton, N.J.). A mobile phase flow rate of 1.2 ml/minute was used with detection of analytes at 254 nm (Waters 490E multiwavelength UV detector, Waters Corp., Milford, Mass.).
Metabolic Experiments. Grapefruit juice (1 ml) was extracted into methylene chloride and, following evaporation of the organic phase, the residue was reconstituted in mobile phase and chromatographed by HPLC. Fractions of the HPLC eluent were collected at 3-4 minute intervals following injection, evaporated and the effect of the residue on 6β-hydroxytestosterone formation examined. […] Edwards, D. J. et al., Life Sci. 59:1025-1030 (1996). The effect of these solutions on 6β-hydroxytestosterone formation was compared using analysis of variance (SYSTAT for Windows™, Version 5.0) with the Tukey test for post-hoc analysis (p<0.05 for significance).
On the technique in general: Microsomes from liver hold many membrane-bound enzymes, among them those of drug oxidation.

Data set [6] relates to CYP3A. Conditions: co-administration; cited from earlier work.
Data set [7] deals with human CYP3A4 (Homo sapiens, UniProt P08684). Kind of data set: 6β-hydroxytestosterone formation in human lymphoblast microsomes containing CYP3A4 expressed from transfected human CYP3A4 cDNA. The protocol:
as §1, §2
Metabolic Experiments. Grapefruit juice (1 ml) was extracted into methylene chloride and, following evaporation of the organic phase, the residue was reconstituted in mobile phase and chromatographed by HPLC. […]

Data set [8] deals with CYP3A4 (3A4). Kind of data set: Inhibition of CYP3A4 in a purified enzyme preparation. It counts as biochemical.
Data set [9] can be described thus: Solubility in ethanol versus water. It counts as physicochemical. Conditions: ethanol vs water.
For data set [10], the target named is T1, P450 3A4 (Homo sapiens, UniProt P08684). Conditions: for inhibition: e. coli membranes.
Target sequence in this assay (P08684 whole entry): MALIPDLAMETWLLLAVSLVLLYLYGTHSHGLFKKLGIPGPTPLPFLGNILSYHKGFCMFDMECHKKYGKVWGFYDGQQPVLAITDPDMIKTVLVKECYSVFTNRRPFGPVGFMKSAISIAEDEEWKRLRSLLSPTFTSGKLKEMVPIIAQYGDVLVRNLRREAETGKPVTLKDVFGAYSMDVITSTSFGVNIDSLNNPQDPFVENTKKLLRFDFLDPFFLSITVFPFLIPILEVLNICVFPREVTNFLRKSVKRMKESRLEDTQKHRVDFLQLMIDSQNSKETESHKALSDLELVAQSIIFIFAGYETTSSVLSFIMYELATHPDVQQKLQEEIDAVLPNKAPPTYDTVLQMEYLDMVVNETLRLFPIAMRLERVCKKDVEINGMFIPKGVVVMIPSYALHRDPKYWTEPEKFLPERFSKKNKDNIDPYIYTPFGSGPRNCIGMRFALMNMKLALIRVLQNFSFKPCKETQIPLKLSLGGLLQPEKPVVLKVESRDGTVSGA
Target sequence in this assay (P16435 whole entry partner): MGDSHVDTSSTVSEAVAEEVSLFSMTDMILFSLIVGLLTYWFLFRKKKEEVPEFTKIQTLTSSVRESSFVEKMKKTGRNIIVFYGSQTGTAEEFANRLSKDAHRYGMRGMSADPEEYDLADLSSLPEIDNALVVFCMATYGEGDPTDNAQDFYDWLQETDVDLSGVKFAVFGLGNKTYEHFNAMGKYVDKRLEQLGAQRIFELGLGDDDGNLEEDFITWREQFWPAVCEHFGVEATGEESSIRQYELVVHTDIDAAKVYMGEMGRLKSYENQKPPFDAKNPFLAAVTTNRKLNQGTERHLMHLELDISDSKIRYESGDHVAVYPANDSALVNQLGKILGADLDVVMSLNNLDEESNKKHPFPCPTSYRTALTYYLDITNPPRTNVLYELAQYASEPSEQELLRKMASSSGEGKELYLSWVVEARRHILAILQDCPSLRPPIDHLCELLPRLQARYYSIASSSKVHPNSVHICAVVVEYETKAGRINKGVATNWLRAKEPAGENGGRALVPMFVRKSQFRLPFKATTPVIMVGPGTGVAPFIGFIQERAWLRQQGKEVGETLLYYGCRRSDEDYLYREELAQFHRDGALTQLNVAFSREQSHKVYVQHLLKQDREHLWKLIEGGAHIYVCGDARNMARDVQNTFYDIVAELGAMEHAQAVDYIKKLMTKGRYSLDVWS
In data set [11] the target is T1, P450 3A4. As to the kind of experiment: Inactivation of P450 3A4 in human liver microsomes (testosterone 6β-hydroxylation, P450 content). Type of data set: biochemical. Further details: The human liver microsomes was prepared by differential centrifugation; from tissue; host or cells: human liver (microsomes). The settings on record: for P450 Content / Testosterone 6-β hydroxylation: 400 μM DHB, 15 min, 37° C., pH 7.5. The protocol: Inactivation of P450 3A4 in human liver microsomes and E. coli membranes. […] At end of the incubation, 100 μl of the incubation mixture was taken for determination of testosterone 6β-hydroxylation activity. The other aliquot was used for P450 determination by the method of Omura and Sato. Ducharme, M. P. et al., Clin. Pharmacol. Ther. 57:485-491 (1995). The human liver microsomes was prepared by differential centrifugation.
Determination of testosterone 6β-hydroxylation. The human liver microsomes or the P450 3A4 and reductase containing E. coli membrane fractions ([…] of P450) were incubated with 200 μM testosterone in 1 ml of 50 mM Hepes buffer (pH 7.5). The reactions were initiated by the addition of 1 mM NADPH and terminated by 1 ml of ethyl acetate in ice. The 6β-hydoxytestosterone product was determined by HPLC on a C18 column (Microsorb-MV, 5 μm, 4.6×15 cm) eluted with a mobile phase of 65% of methanol at flow rate of 1 ml/min and the eluate was monitored by UV detection at 254 nm.
Target sequence in this assay (P08684 whole entry): as the sequence (P08684 whole entry) above

Data set [12] concerns P450 2B1. The settings on record: cited from earlier work.
Data set [13] has as its system P450 2B4. The settings on record: cited from earlier work.
In data set [14] the test system is cytochrome P450. Conditions: cited from earlier work.
Data set [15] has as its system P450. The settings on record: in vivo, treated rats; cited from earlier work.
For data set [16], the system named is P450. Conditions: oral erythromycin; oral and IV midazolam; cited from earlier work.
Data set [17] has as its system oxidative metabolism. Conditions: in vitro; cited from earlier work.
Data set [18] deals with CYP3A4. The settings on record: human, in vivo; cited from earlier work.
The mark [19] stands for this setting: preincubation with DHB and NADPH.

Chain of human CYP3A4 (P08684 whole entry): as above

Turning to `COc1c2ccoc2cc2cc(C)oc(=O)c12` [coriandrin], the “binding to apoP450” value in [1] and in data set [2] was “covalent binding” throughout.

Turning to `O=C1C[C@@H](c2ccc(O)cc2)Oc2cc(O)cc(O)c21` [naringenin], in data set [3], the “inhibition of CYP3A / contribution to it” value is on record as “do not significantly contribute”.

Consider `O=c1c(O)c(-c2ccc(O)c(O)c2)oc2cc(O)cc(O)c12` [quercetin], for which the “effect on cytochrome P450 activity” value in [4] is reported as “no effect”.

With `CC(=O)N1CCN(c2ccc(OCC3COC(Cn4ccnc4)(c4ccc(Cl)cc4Cl)O3)cc2)CC1` (centres unmarked) [ketoconazole, reference compound], the IC50 in [5] (read-out: concentration required to inhibit 6β-hydroxytestosterone formation by 50% (IC50), rat liver microsomes (dexamethasone-induced)) amounted to […]. Also, in data set [6], the bioavailability of cyclosporine result is on record as “increases bioavailability”.

In the case of `C/C(=C\COc1c2ccoc2cc2oc(=O)ccc12)CCC(O)C(C)(C)O` (centres unmarked) [6',7'-dihydroxybergamottin], the “inhibition, concentration dependence and need of pre-incubation” value in data set [5] is “inhibition is concentration-dependent and requires no pre-incubation with microsomes”. In addition, the IC50 in data set [5] (microsomes) was 25 µM; in data set [7], 1 to 2 µM. Further, the “inactivation of 3A4, in words” value was “potent NADPH- and time dependent inactivator of 3A4” in data set [8]; “potent NADPH- and time dependent inactivator of 3A4” in data set [10] (human 3A4 expressed in E. coli membrane); “potent NADPH- and time dependent inactivator of 3A4” in [11] (human liver microsomes). Moreover, the “solubility, in words” value in [9] is reported as “much more soluble in ethanol than water”. The inhibition in [10] is about 45%; in data set [10] (15 min) it was 90%. Further, the “effect of GSH on inactivation” value in [11] (2 mM GSH in the incubation system) is listed as “not inhibited by the presence of 2 mM GSH”. Moreover, the “P450 Content” value worked out at 0.87 nmol/mL in data set [11] (+NADPH/+DHB) and 0.93 nmol/mL in [11] (-NADPH/+DHB). The “Testosterone 6-β hydroxylation” value in data set [11] (+NADPH/+DHB) worked out at 0.18 nmol/nmol P450/min; in [11] (-NADPH/+DHB), 0.37 nmol/nmol P450/min. Besides, the “inhibition of 6β-hydroxytestosterone formation activity, mode” value in data set [11] (FIG. 4, human liver microsomes) is “time and concentration dependent as well as requiring catalytic turnover”. In addition, in data set [11] (human liver microsomes), the “P450 3A4 activity inhibition, in words” value was “significantly inhibited”. Further, the “P450 retained (reduced-CO spectrum)” value in data set [11] (setting [19]) was “about 90%”. The “loss of P450 3A4 catalytic activity” value in data set [11] (setting [19]) was determined as 70%. The inhibition at 20 µM in data set [11] (without preincubation, final concentration of 20 μM, read-out: testosterone 6β-hydroxylase activity inhibited (competitive inhibition)) was about 30%.

With `C#Cc1ccc2c(ccc3ccccc32)c1` [2-ethynylphenanthrene], the mechanism based inactivation result in data set [12] and in data set [13] was “mechanism based inactivation” in each case.

For the compound chlorophyllin, the “inhibition of cytochrome P450 activity” value in data set [14] is given as “non-specific inhibition of cytochrome P450 activity”.

With `COc1c2occc2cc2ccc(=O)oc12` [8-methoxyporalen], in [15], the “heme fragment, MI complex and heme adduct formation” value was “no heme fragment, MI complex and heme adduct formation”.

As to `CC[C@H]1OC(=O)[C@H](C)[C@@H](O[C@H]2C[C@@](C)(OC)[C@@H](O)[C@H](C)O2)[C@H](C)[C@@H](O[C@@H]2O[C@H](C)C[C@H](N(C)C)[C@H]2O)[C@](C)(O)C[C@@H](C)C(=O)[C@H](C)[C@@H](O)[C@]1(C)O` [erythromycin], the metabolism of midazolam result in data set [16] was “impaired the metabolism of midazolam after both oral and IV administration”.

As for `C#Cc1cc2ccccc2c2ccccc12` [9-ethynylphenanthrene], the mechanism based inactivation entry in data set [12] and in [13] was “mechanism based inactivation” in each case.

Regarding `C[C@@H]1O[C@@H](O[C@H]2[C@H](Oc3cc(O)c4c(c3)O[C@H](c3ccc(O)cc3)CC4=O)O[C@H](CO)[C@@H](O)[C@@H]2O)[C@H](O)[C@H](O)[C@H]1O` [naringin], the “inhibition of oxidative metabolism” value in [17] was “weak inhibitor”. In data set [18], the “effect on disposition of substrates for CYP3A4” value is listed as “did not significantly affect”. Also, in data set [3], the “inhibition of CYP3A / contribution to it” value is reported as “do not significantly contribute”.
